Laboratory results reported in the supplement of paper PMC10307832.

Key:
Assay in all cases: relative viability (nuclei count vs DMSO), 5 days (fraction); higher = more cells survive
[1] = compound: CN1C=C(C2=CC=CC=C21)/C=C\3/C4=C(C=CC=N4)NC3=O + CC1(C)CCC(c2ccc(Cl)cc2)=C(CN2CCN(c3ccc(C(=O)NS(=O)(=O)c4ccc(N[C@H](CCN5CCOCC5)CSc5ccccc5)c(S(=O)(=O)C(F)(F)F)c4)cc3)CC2)C1 [Navitoclax] (partner 0.5 µM)
Method in brief: (§1)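 A single step with final 0.05% Triton X-100, 1% formaldehyde and 1 ug/ml Hoechst fixed the cells and stained nuclei 5 days after treatment. Lung cancer cell lines in 1536-well plates had been treated by pin tool the day after seeding with one drug alone or a fixed anchor-drug dose plus five library-drug doses (not always all listed) in √10 steps, and nuclei were counted on 4× images. Relative viability is the ratio of nuclei in treated wells to nuclei in vehicle wells, taken as the median of duplicate plates.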

[2] = compound: CN1C=C(C2=CC=CC=C21)/C=C\3/C4=C(C=CC=N4)NC3=O + C[C@]1(O)C[C@@H](c2nc(-c3ccc4ccc(-c5ccccc5)nc4c3)c3c(N)nccn32)C1 [Linsitinib] (partner 1 µM)
Method in brief: as §1

Trametinib + OSI-027 = compound: CC(=O)Nc1cccc(-n2c(=O)n(C3CC3)c(=O)c3c(Nc4ccc(I)cc4F)n(C)c(=O)c(C)c32)c1 [Trametinib] + COc1cccc2cc(-c3nc([C@H]4CC[C@H](C(=O)O)CC4)n4ncnc(N)c34)[nH]c12 [OSI-027] (partner 0.5 µM)
Method in brief: as §1

Trametinib + Navitoclax = compound: CC(=O)Nc1cccc(-n2c(=O)n(C3CC3)c(=O)c3c(Nc4ccc(I)cc4F)n(C)c(=O)c(C)c32)c1 [Trametinib] + CC1(C)CCC(c2ccc(Cl)cc2)=C(CN2CCN(c3ccc(C(=O)NS(=O)(=O)c4ccc(N[C@H](CCN5CCOCC5)CSc5ccccc5)c(S(=O)(=O)C(F)(F)F)c4)cc3)CC2)C1 [Navitoclax] (partner 0.5 µM)
Method in brief: as §1

Cell Line	relative viability ([1]; first compound 0.02 µM)	relative viability ([1]; first compound 0.06325 µM)	relative viability ([1]; first compound 0.2 µM)	relative viability ([1]; first compound 0.6325 µM)	relative viability ([1]; first compound 2 µM)	relative viability ([2]; first compound 0.02 µM)	relative viability ([2]; first compound 0.06325 µM)	relative viability ([2]; first compound 0.2 µM)	relative viability ([2]; first compound 0.6325 µM)	relative viability ([2]; first compound 2 µM)	relative viability (Trametinib + OSI-027; first compound 0.0025 µM)	relative viability (Trametinib + OSI-027; first compound 0.007906 µM)	relative viability (Trametinib + OSI-027; first compound 0.025 µM)	relative viability (Trametinib + OSI-027; first compound 0.07906 µM)	relative viability (Trametinib + OSI-027; first compound 0.25 µM)	relative viability (Trametinib + Navitoclax; first compound 0.0025 µM)	relative viability (Trametinib + Navitoclax; first compound 0.007906 µM)	relative viability (Trametinib + Navitoclax; first compound 0.025 µM)	relative viability (Trametinib + Navitoclax; first compound 0.07906 µM)	relative viability (Trametinib + Navitoclax; first compound 0.25 µM)
HOP-62	1.25	1.14	0.703	0.99	1	0.923	0.961	1.07	1.03	1.02	0.879	0.873	0.493	0.219	0.188	1.05	1.03	0.741	0.617	0.198
LC-2-ad	0.412	0.304	0.439	0.412	0.389	0.743	0.83	0.766	0.864	0.765	0.853	0.57	0.513	0.516	0.416	0.35	0.306	0.34	0.285	0.173
SW 900	–	–	–	–	–	–	–	–	–	–	0.629	0.539	0.424	0.428	0.167	–	–	–	–	–
NCI-H322M	1.31	1.3	1.12	1.12	1.29	1.01	0.993	0.874	0.819	0.862	0.504	0.483	0.467	0.41	0.383	1.15	0.97	1.01	0.827	0.687
NCI-H1703	1.06	1.03	1.01	0.966	0.998	0.489	0.848	0.581	0.94	1.02	–	–	–	–	–	1.15	1.15	1.06	0.972	0.987
NCI-H2170	–	0.604	0.527	0.543	0.541	–	–	–	–	–	0.754	0.659	0.392	0.613	0.616	0.636	0.521	–	0.425	0.448
NCI-H1650	0.901	0.984	0.927	0.918	1.19	–	–	–	–	–	0.632	0.604	0.534	0.451	0.204	0.94	0.857	0.816	0.473	0.35
IA-LM	1.05	0.833	0.731	0.749	0.541	0.85	0.668	0.477	0.762	0.771	–	–	–	–	–	0.584	0.383	0.179	0.1	0.0292
EBC-1	0.37	0.426	0.384	0.48	0.498	1.03	0.873	0.723	0.922	0.971	–	–	–	–	–	0.274	0.218	0.157	0.141	0.179
A549	1.36	1.27	1.15	1.24	1.15	0.596	0.512	–	0.543	0.586	–	–	–	–	–	1.12	0.81	0.464	0.281	0.0636
ChaGo-K-1	0.816	0.939	–	0.902	0.801	–	–	–	–	–	0.558	0.488	0.51	0.423	0.403	1.07	0.803	1.08	0.508	0.556
NCI-H2342	–	–	–	–	–	–	–	–	–	–	0.56	0.552	–	0.471	0.577	–	–	–	–	–
NCI-H1648	–	–	–	–	–	–	–	–	–	–	–	0.28	0.273	0.279	0.272	–	–	–	–	–
ABC-1	–	–	–	–	–	0.797	0.704	0.604	0.729	0.712	0.403	0.439	0.28	0.266	0.225	–	–	–	–	–
NCI-H661	–	–	–	–	–	0.689	0.536	0.578	0.486	0.559	0.686	0.595	0.51	0.522	0.389	–	–	–	–	–
NCI-H1563	–	–	–	–	–	1.24	1.17	1.11	1.17	1.26	0.745	0.819	0.772	0.884	0.623	–	–	–	–	–
NCI-H522	–	–	–	–	–	–	–	–	–	–	0.592	0.653	0.595	1.57	0.587	–	–	–	–	–
NCI-H1623	–	–	–	–	–	–	–	–	–	–	0.361	0.35	0.326	0.28	0.311	–	–	–	–	–
NCI-H1299	1.04	0.988	1.02	1.12	1.02	1.07	1.03	1.06	1.06	1.05	–	–	–	–	–	1.04	1.01	0.896	0.887	0.78
NCI-H358	–	–	–	–	–	0.632	0.643	0.881	0.795	0.686	0.393	0.341	0.19	0.174	0.14	–	–	–	–	–
LCLC-103H	–	–	–	–	–	1.13	1.13	1.07	1.13	1.11	0.463	0.44	0.379	0.334	0.421	–	–	–	–	–
Calu-6	0.804	0.772	0.746	0.908	0.859	0.926	0.903	0.919	0.975	0.915	–	–	–	–	–	0.601	0.295	0.177	0.129	0.127
NCI-H650	–	–	–	–	–	0.91	0.955	–	0.677	0.807	0.645	0.765	0.619	0.714	0.567	–	–	–	–	–
